Source: patent publication US10076511B2, “Bisamide derivative of dicarboxylic acid as an agent for stimulating tissue regeneration and recovery of diminished tissue function” (TREAMID GmbH, priority 2015, dated 2018)
“And” between values parts separate entries of the source, which are not always exact repeats. Identical values can stand only once. Marks after values point to notes of the source that are not given here.

Columns and labels:
[1] = test system: male Wistar rats; assay: Sperm motility in asthenospermia simulated with Etoposide; assay type: in vivo, rat; conditions: for percentage of motile sperm cells: Treamid 5.0 mg/kg for 10 days after administration of Etoposide; for The number of motile sperm cells (in %): 5 days before and 5 days after Etoposide (preventive course), Treamid 5.0 mg/kg
Method: The use of the drug that induces an increase in the free radical level was due to the fact that according to modern ideas, the direct cause of asthenospermia is oxidative stress (Kao S. H. et. al. Increase of oxidativestress in human sperm with lower motility. Fertil. and Steril. 2008; 89: 5: 1183-1190).
The experiments were performed on 50 male Wistar rats (3 months of age). Etoposide was administered once intravenously at the maximum tolerated dose of 30 mg/kg.
The effectiveness of Treamid was assessed by the percentage of motile sperm forms isolated from the epididymis.
In the first series, the results of the studies were compared with those obtained for administration of the reference drug, Speman, that was administered intragastrically at a dose of 140 mg/kg.

[2] = test system: male Wistar rats; assay: Pair-test of sexual behavior, copulatory activity reduced by Synestrol; assay type: in vivo, rat
Method: Reduction of copulatory activity caused by androgen deficiency was simulated by administration of Synestrol to male rats.
The model is based on the antagonism of androgenic and estrogenic hormones. The administration of Synestrol to male rats leads to the suppression of the sexual activity in animals.
Experiments were performed on 36 male Wistar rats (3 months of age). For 30 days after the beginning of the experiment, all male rats (except for the intact group (background)) were intramuscularly injected with Synestrol at a dose of 50 U/kg/day. Further, from Day 31 to Day 45 of the experiment, animals of the experimental groups, in addition to Synestrol, were intraperitoneally administered Treamid at a dose of 1.5 mg/kg and reference preparation Tribestan at a dose of 70 mg/kg. The sexual activity was estimated by the pair-test of sexual behavior. For this purpose, female rats in the estrus stage caused by a preliminary 4-fold injection of Synestrol were involved in the experiment. The effectiveness of Treamid was estimated by the following indices: latency until the first mating attempt (LFM), the number of mating attempts (mounts), and the number of ejaculations. The obtained data were compared with those of the same animals before the experiment (the first test) and with the data in the control group (the second test).

[3] = test system: male Wistar rats; assay: Sexual incentive motivation test, rats of late reproductive age; assay type: in vivo, rat
Method: Erectile dysfunction was simulated by using animals of late and senile reproductive age (14-19 months). Suppression of sexual motivation was simulated by using animals of late reproductive age (14 months).
Experiments on studying the effect of Treamid on sexual motivation were carried out on 40 male Wistar rats (14 months of age). A model for a targeted search for novel agents for the therapy of this pathology was used as an experimental model of sexual incentive motivation in rats [Xi Chu, Ekaterina S. Zhavbert, Julia L. Dugina, Irina A. Kheyfets, Svetlana A. Sergeeva, Oleg I. Epstein, Anders Agmo Sindenafil and a compound stimulating endothelial NO synthase modity sexual incentive motivation and copulatory behavior in male wistar and fisher 344//J Sex Med.—2008.—5.—P. 2085-2009]. This model is based on the fact that rats are social animals and seek not only sexual, but also social contacts. The assessment of sexual motivation involves determining the time spent near a sexual stimulus and the score of preference in animals without direct contact with “social” and “sexual” stimuli. The sexual stimulus was a female rat in estrus stage, and the social stimulus was a male rat.

[4] = test system: male Wistar rats; assay: Chronic abacterial prostatitis (CAP) model, prostate weight and morphometry; assay type: in vivo, rat
Method: This is manifested in a decrease in the severity of the morphological changes typical in these diseases. CAP was simulated by suturing the ventral lobe of the gland with a silk thread, and BPH was simulated by the administration of Sulpiride. The reference drug was Prostamol Uno.
Treamid were administered intragastrically to animals with CAP at a dose of 0.5 mg/kg for 15 days.
Experiments were performed on 40 male Wistar rats (3 months of age). To simulate chronic abacterial prostatitis, the ventral lobe of the prostate was sutured with a silk thread (under anesthesia). The model of benign prostatic hyperplasia (BPH) was simulated in rats by inducing hyperprolactinaemia, for which male rats were intraperitoneally injected with Sulpiride at a dose of 40 mg/kg every day for 2 months (Eglonil, Sanofi Winthrop Industry, France).
One month after the surgery, the animals of the experimental group were intraperitoneally administered Treamid at a dose of 0.5 mg/kg once daily for 15 days. At the end of the administration course, the animals were weighed and euthanized in a CO2 chamber. The ventral lobe of the gland was then dissected, weighed, and its volume was measured, followed by the calculation of a weight coefficient, and subjected to morphological analysis. For this purpose, the prostate was fixed in formalin and poured into paraffin. Paraffin sections of a thickness of 5 μm were stained with hematoxylin-eosin according to Van Gieson on the connective tissue, to calculate the relative area of the epithelium. Further, the severity of atrophic processes and developing sclerosis was qualitatively assessed. The assessment was carried out on standard area of the gland section by using a computer graphic analysis (micrographs of 10 serial visual fields performed by an AxioCam Erc5s camera mounted on an AxioLab A1 microscope (×10 lens, ×10 eyepiece), with an image transfer software of “AxioVision LE”, Carl Zeiss). The area occupied by secretory sites, collagen fibers of connective tissue septa was determined. The effectiveness of the drug was estimated by the following criteria: lower intensity of morphological symptoms of chronic abacterial prostatitis (atrophy and sclerosis): the area occupied by secretory sections, collagen fibers of connective tissue septa.

[5] = test system: male CBA/CaLac mice; assay: Chronic toxic hepatitis model (CCl4), liver histology; assay type: in vivo, mouse; conditions: Day 28; Treamid 10 mg/kg intragastrically Day 14-27
Method: Chronic toxic hepatitis was induced in the male CBA/CaLac mice by intragastric administration of a 20% carbon tetrachloride (CCl4) solution in olive oil in a volume of 0.2 ml/mouse on Days 0, 3, 7, 10, 14, and 17 of the study. Treamid was administered at a dose of 10 mg/kg intragastrically once daily, every day from Day 14 to Day 27 of the study. On day 28, the animals were euthanized in a CO2 chamber and a liver biopsy sample was taken for histological analysis.
For histological examination, the liver was fixed in a 10% neutral formalin solution and then poured into paraffin by the standard method. Deparaffined sections of a thickness of 5 μm were stained: 1) with hematoxylin and eosin according to the standard procedure for routine histological examination; and 2) with picrofuxin for the calculation of the area of connective tissue, using a graphic data processing software.

[6] = First test, Synestrol-treated rats
[7] = Second test, Treamid 1.5 mg/kg or Tribestan 70 mg/kg intraperitoneally Day 31-45
[8] = 14-month rats, Second test, after administration of the test compound, Treamid 5 mg/kg, Sildenafil 3 mg/kg, 14 days
[9] = 14-month rats, first test, before administration
[10] = Treamid 0.5 mg/kg 15 days, Prostamol Uno 50 mg/kg
[11] = anterior part of the prostate gland, Treamid 0.5 mg/kg, Prostamol Uno 50 mg/kg

SMILES: O=C(CCCC(=O)NCCc1ncc[nH]1)NCCc1ncc[nH]1 [Treamid]
- percentage of motile sperm cells ([1]; group M ± m): 71.01 ± 1.80 %
- The number of motile sperm cells (in %) ([1]; group X ± m, Speman 140 mg/kg): 79.83 ± 1.88#*⋄ %
- The number of motile sperm cells (in %) ([1]; individual animals, Speman 140 mg/kg intragastrically): 77.42% and 79.09% and 82.72% and 74.67% and 85.26%
- percentage of motile sperm cells ([1]; individual males): 74.55% and 69.44% and 70.20% and 65.52% and 75.34%
- Ejaculating animals, % [2, 6]: 0.00%#
- LFM [2, 6]: 373.89 ± 112.89 s
- The number of mounts, abs. [2, 6]: 5.89 ± 1.91 abs.
- LFM [2, 7]: 381.22 ± 115.18 s
- The number of mounts, abs. [2, 7]: 8.00 ± 3.12 abs.
- A, sec (time spent in the sexual stimulus zone) [3, 8]: 154.00 ± 41.83#⋄ sec
- B, sex (time spent in the social stimulus zone) [3, 8]: 95.60 ± 29.66 s
- PS, s. u. (preference score) [3, 8]: 0.64±0.09 s. u. and 0.64 ± 0.09⋄ s. u.
- effect on sexual motivation ([3]; 14-month rats, Treamid 5 mg/kg, Sildenafil 3 mg/kg): has a stimulating effect
- A, sec (time spent in the sexual stimulus zone) [3, 9]: 132.30 ± 23.69 s
- B, sec (time spent in the social stimulus zone) [3, 9]: 113.60 ± 13.77 s
- PS, s. u. (preference score) [3, 9]: 0.51 ± 0.06 s. u.
- decrease of time spent in the social stimulus zone compared with the control ([3]; Treamid 5 mg/kg, second test): 2 times
- increase in the area of the acinar epithelium ([4]; Treamid 0.5 mg/kg): 22%
- Volume of the anterior lobe of the prostate gland, cm^3 [4, 10]: 0.90 ± 0.20 cm^3
- Weight coefficient of the anterior lobe of the prostate gland [4, 10]: 1.97 ± 0.47 mg/g
- Weight of the anterior lobe of the prostate gland [4, 10]: 976.00 ± 226.62 mg
- Area of collagen fibers [4, 11]: 2.64 ± 0.12 %
- Area of the acinar epithelium [4, 11]: 26.33 ± 2.63%
- content of connective tissue in the liver compared to the pathological control [5]: markedly reduced
- histological pattern of the liver [5]: did not differ from that of the intact control
